Our source for the IC50 values is US20250353852A1, “COMPOUNDS AND COMPOSITIONS THAT INHIBIT PIKFYVE” (Kineta, Inc., priority 2021, published 2025).

Sequence of full-length human PIKFYVE (Q9Y2I7 whole entry S696N/L932S/Q995L/T998S/S1033A/Q1183K, the tested form may be a part): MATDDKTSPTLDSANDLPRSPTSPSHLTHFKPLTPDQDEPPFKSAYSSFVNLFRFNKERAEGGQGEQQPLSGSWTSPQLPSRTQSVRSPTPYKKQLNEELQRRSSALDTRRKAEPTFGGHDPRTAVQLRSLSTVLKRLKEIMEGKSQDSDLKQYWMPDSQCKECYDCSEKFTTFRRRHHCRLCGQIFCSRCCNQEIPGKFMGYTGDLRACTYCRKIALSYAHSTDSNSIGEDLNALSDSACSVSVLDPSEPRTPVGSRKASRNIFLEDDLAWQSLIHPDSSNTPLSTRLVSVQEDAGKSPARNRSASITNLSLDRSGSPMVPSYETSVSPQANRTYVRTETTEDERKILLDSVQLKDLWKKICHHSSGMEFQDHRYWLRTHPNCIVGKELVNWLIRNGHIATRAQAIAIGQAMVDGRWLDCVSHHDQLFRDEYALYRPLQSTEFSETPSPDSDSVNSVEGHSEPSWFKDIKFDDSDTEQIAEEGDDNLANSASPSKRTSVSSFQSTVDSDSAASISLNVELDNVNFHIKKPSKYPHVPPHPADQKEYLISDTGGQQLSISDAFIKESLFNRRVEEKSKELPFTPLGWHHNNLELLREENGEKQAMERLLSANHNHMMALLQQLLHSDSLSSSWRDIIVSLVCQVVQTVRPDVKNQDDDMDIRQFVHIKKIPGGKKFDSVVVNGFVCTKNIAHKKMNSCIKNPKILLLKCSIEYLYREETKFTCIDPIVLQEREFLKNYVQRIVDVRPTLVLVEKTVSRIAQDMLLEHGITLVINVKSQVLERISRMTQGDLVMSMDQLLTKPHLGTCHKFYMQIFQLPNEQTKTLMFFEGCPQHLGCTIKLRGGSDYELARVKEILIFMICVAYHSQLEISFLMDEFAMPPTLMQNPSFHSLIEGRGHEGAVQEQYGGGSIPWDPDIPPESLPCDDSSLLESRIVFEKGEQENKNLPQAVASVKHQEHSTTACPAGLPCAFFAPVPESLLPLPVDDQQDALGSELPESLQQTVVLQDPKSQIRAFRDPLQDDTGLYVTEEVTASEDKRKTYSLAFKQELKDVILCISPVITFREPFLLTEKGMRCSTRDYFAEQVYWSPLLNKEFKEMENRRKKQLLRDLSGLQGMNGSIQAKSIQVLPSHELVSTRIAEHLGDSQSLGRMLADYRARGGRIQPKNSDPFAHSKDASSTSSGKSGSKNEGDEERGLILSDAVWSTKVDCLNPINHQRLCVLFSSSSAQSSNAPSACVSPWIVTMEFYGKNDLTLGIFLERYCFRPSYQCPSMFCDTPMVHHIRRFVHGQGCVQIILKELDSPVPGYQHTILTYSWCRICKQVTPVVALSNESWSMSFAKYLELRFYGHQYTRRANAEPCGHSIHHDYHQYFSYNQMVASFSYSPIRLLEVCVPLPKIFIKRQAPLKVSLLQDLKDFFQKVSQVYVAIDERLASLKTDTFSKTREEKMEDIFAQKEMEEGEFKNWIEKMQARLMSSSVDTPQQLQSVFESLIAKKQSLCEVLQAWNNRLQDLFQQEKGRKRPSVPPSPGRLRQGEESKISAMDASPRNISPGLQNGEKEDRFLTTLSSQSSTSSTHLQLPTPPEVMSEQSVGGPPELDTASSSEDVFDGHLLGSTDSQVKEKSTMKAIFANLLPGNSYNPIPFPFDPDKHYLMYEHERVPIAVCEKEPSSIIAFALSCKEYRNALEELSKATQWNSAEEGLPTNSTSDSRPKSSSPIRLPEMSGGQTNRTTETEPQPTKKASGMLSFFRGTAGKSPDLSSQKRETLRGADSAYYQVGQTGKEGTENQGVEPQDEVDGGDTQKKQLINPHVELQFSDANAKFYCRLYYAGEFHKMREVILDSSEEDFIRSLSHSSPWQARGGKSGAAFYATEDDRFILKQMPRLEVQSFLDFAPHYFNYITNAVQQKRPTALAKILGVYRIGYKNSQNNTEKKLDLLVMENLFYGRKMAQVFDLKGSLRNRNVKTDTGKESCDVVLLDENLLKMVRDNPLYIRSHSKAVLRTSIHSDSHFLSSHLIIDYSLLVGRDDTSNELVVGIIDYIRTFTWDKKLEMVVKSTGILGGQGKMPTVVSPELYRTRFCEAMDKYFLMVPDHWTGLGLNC

For the test, the target named is full-length human PIKFYVE (Homo sapiens (Human), UniProt Q9Y2I7, L932S/Q1183K/Q995L/S1033A/S696N/T998S). The test is described as follows: PIKfyve biochemical assay (ADP-Glo Kinase assay, Carna Biosciences). Conditions: class symbols. An excerpt:
PIKfyve Biochemical Assay. The biochemical […] inhibition assays were run by Carna Biosciences according to proprietary methodology based on the Promega […] Kinase assay. […] NP_055855.2] was expressed as N-terminal GST-fusion protein (265 kDa) using baculovirus expression system. GST-PIKFYVE was purified by using glutathione sepharose chromatography and used in an ADP-GloTM Kinase assay (Promega). Reactions were set up by adding the test compound solution, substrate solution, ATP solution and kinase solution, each at 4× final concentrations. Reactions were prepared with assay buffer (50 mM MOPS, 1 mM DTT, pH7.2), mixed, and incubated in black 384 well polystyrene plates for 1 hour at room temperature. ADP-Glo^TM reagent was then added for 40 minutes, followed by kinase detection reagent for an additional 40 minutes. The kinase activity was evaluated by detecting relative light units on a luminescence plate reader. […] IC50 values were calculated from concentration vs % inhibition curves by fitting to a four-parameter logistic curve. […] The biochemical […] inhibition assays were run by Carna Biosciences according to proprietary methodology based on the Promega ADP-GloTM Kinase assay. […] GST-PIKFYVE was purified by using glutathione sepharose chromatography and used in an ADP-GIoTM Kinase assay (Promega). Reactions were set up by adding the test compound solution, substrate solution, ATP solution and kinase solution, each at 4× final concentrations. Reactions were prepared with assay buffer (50 mM MOPS, 1 mM DTT, pH7.2), mixed, and incubated in black 384 well polystyrene plates for 1 hour at room temperature. ADP-GIoTM reagent was then added for 40 minutes, followed by kinase detection reagent for an additional 40 minutes. The kinase activity was evaluated by detecting relative light units on a luminescence plate reader. […] IC50 values were calculated from concentration vs % inhibition curves by fitting to a four-parameter logistic curve. […] The same compounds were also tested in both FAB1 and PIKFYVE TDP-43 yeast models.
In general terms: ADP-Glo turns the ADP formed in a reaction into a luminescent signal.
In general, IC50 refers to the point on the concentration scale where inhibition reaches its midpoint. Higher therefore signals weaker potency in that assay. As for “4-(5-(3-(2-fluorophenyl)-1H-pyrazol-1-yl)-2-(tetrahydrofuran-2-yl)pyrazolo[1,5-a]pyrimidin-7-yl)morpholine [Compound 91]”, the IC50 was in the range of 100 to 1000 nM.

Compound “4-(5-(3-(3-fluorophenyl)-1H-pyrazol-1-yl)-2-(pyridin-4-yl)pyrazolo[1,5-a]pyrimidin-7-yl)morpholine [Compound 64]” yielded an IC50 of 10 to 100 nM.

`c1cc(-c2cc3nc(-n4ccc(C5CCCNC5)n4)cc(N4CCOCC4)n3n2)ccn1` (single isomer, unassigned) [Compound 75, 4-(5-(3-(piperidin-3-yl)-1H-pyrazol-1-yl)-2-(pyridin-4-yl)pyrazolo[1,5-a]pyrimidin-7-yl)morpholine] had an IC50 of 100 to 1000 nM.

As to `c1cc(-c2cc3nc(-n4ccc(C5CCCNC5)n4)cc(N4CCOCC4)n3n2)ccn1` (single isomer, unassigned) [Compound 76, 4-(5-(3-(piperidin-3-yl)-1H-pyrazol-1-yl)-2-(pyridin-4-yl)pyrazolo[1,5-a]pyrimidin-7-yl)morpholine], the IC50 was in the range of 100 to 1000 nM.

The compound `Cc1cccc(/C=N/Nc2cc(N3CC4CC3CO4)n3nc(-c4ccncc4)cc3n2)c1` (stereo not shown) [Compound 1, (E)-5-(5-(2-(3-methylbenzylidene)hydrazinyl)-2-(pyridin-4-yl)pyrazolo[1,5-a]pyrimidin-7-yl)-2-oxa-5-azabicyclo[2.2.1]heptane] gave an IC50 of 10 to 100 nM.

`Cc1cccc(CCOc2cc(N3CCOCC3)n3nc(-c4ccncc4)cc3n2)c1` [Compound 2, 4-(5-(3-methylphenethoxy)-2-(pyridin-4-yl)pyrazolo[1,5-a]pyrimidin-7-yl)morpholine]: the IC50 lay in the range of 1000 to 10000 nM.

On to `O=c1ccc(-c2ccccc2)nn1-c1cc(N2CCOCC2)n2nc(-c3ccncc3)cc2n1` [Compound 3, 2-(7-morpholino-2-(pyridin-4-yl)pyrazolo[1,5-a]pyrimidin-5-yl)-6-phenylpyridazin-3(2H)-one], for which the IC50 lay in the range of 100 to 1000 nM.

The compound `O=c1c(Br)c(Br)cnn1-c1cc(N2CCOCC2)n2nc(-c3ccncc3)cc2n1` [Compound 4, 4,5-dibromo-2-(7-morpholino-2-(pyridin-4-yl)pyrazolo[1,5-a]pyrimidin-5-yl)pyridazin-3(2H)-one] showed an IC50 of 1000 to 10000 nM.

For `O=c1c(-c2ccccc2)ccnn1-c1cc(N2CCOCC2)n2nc(-c3ccncc3)cc2n1` [Compound 5, 2-(7-morpholino-2-(pyridin-4-yl)pyrazolo[1,5-a]pyrimidin-5-yl)-4-phenylpyridazin-3(2H)-one], the IC50 is 100 to 1000 nM.

`O=c1c(-c2ccccc2)c(-c2ccccc2)cnn1-c1cc(N2CCOCC2)n2nc(-c3ccncc3)cc2n1` [Compound 6, 2-(7-morpholino-2-(pyridin-4-yl)pyrazolo[1,5-a]pyrimidin-5-yl)-4,5-diphenylpyridazin-3(2H)-one] yielded a concentration for half-maximal inhibition (IC50) of 1000 to 10000 nM.

In turn, `COc1cnn(-c2cc(N3CCOCC3)n3nc(-c4ccncc4)cc3n2)c(=O)c1Br` [Compound 7, 4-bromo-5-methoxy-2-(7-morpholino-2-(pyridin-4-yl)pyrazolo[1,5-a]pyrimidin-5-yl)pyridazin-3(2H)-one] registered an IC50 of 1000 to 10000 nM.

For `c1cncc(-n2nccc2-c2cc(N3CCOCC3)n3nc(-c4ccncc4)cc3n2)c1` [Compound 12, 4-(5-(1-(pyridin-3-yl)-1H-pyrazol-5-yl)-2-(pyridin-4-yl)pyrazolo[1,5-a]pyrimidin-7-yl)morpholine], the IC50 is 1000 to 10000 nM.

`c1cncc(-n2ccc(-c3cc(N4CCOCC4)n4nc(-c5ccncc5)cc4n3)n2)c1` [Compound 13, 4-(5-(1-(pyridin-3-yl)-1H-pyrazol-3-yl)-2-(pyridin-4-yl)pyrazolo[1,5-a]pyrimidin-7-yl)morpholine] had an IC50 of 10 to 100 nM.

Turning to `c1ccc(-n2ccc(-c3cc(N4CCOCC4)n4nc(-c5ccncc5)cc4n3)n2)cc1` [Compound 14, 4-(5-(1-phenyl-1H-pyrazol-3-yl)-2-(pyridin-4-yl)pyrazolo[1,5-a]pyrimidin-7-yl)morpholine], the IC50 was 10 to 100 nM.

In turn, `CC(C)(C)OC(=O)N1CCCC(c2cn(-c3cc(N4CCOCC4)n4nc(-c5ccncc5)cc4n3)cn2)C1` (stereo not shown) [Compound 15, tert-butyl 3-(1-(7-morpholino-2-(pyridin-4-yl)pyrazolo[1,5-a]pyrimidin-5-yl)-1H-imidazol-4-yl)piperidine-1-carboxylate] came in with an IC50 of 1000 to 10000 nM.

In the case of `c1cc(-c2cc3nc(-n4cnc(C5CCCNC5)c4)cc(N4CCOCC4)n3n2)ccn1` (stereo not shown) [Compound 16, 4-(5-(4-(piperidin-3-yl)-1H-imidazol-1-yl)-2-(pyridin-4-yl)pyrazolo[1,5-a]pyrimidin-7-yl)morpholine], the IC50 fell in the range of 1000 to 10000 nM.

For `C1=C(c2cn(-c3cc(N4CCOCC4)n4nc(-c5ccncc5)cc4n3)cn2)CNCC1` [Compound 17, 4-(2-(pyridin-4-yl)-5-(4-(1,2,5,6-tetrahydropyridin-3-yl)-1H-imidazol-1-yl)pyrazolo[1,5-a]pyrimidin-7-yl)morpholine], the IC50 lay in the range of 1000 to 10000 nM.

`CN1CCCC(c2cn(-c3cc(N4CCOCC4)n4nc(-c5ccncc5)cc4n3)cn2)C1` (stereo not shown) [Compound 18, 4-(5-(4-(1-methylpiperidin-3-yl)-1H-imidazol-1-yl)-2-(pyridin-4-yl)pyrazolo[1,5-a]pyrimidin-7-yl)morpholine] came in with an IC50 of 1000 to 10000 nM.

`CN1CC(c2cc(N3CCOCC3)n3nc(-c4ccncc4)cc3n2)CC1c1ccccc1` (stereo not shown) [Compound 19, 4-(5-(1-methyl-5-phenylpyrrolidin-3-yl)-2-(pyridin-4-yl)pyrazolo[1,5-a]pyrimidin-7-yl)morpholine] gave an IC50 of 1000 to 10000 nM.

For the compound `O=C1C(c2ccccc2)CCN1c1cc(N2CCOCC2)n2nc(-c3ccncc3)cc2n1` (stereo not shown) [Compound 23, 1-(7-morpholino-2-(pyridin-4-yl)pyrazolo[1,5-a]pyrimidin-5-yl)-3-phenylpyrrolidin-2-one], the IC50 fell in the range of 100 to 1000 nM.

In turn, `O=C1C(c2ccccc2)CCCN1c1cc(N2CCOCC2)n2nc(-c3ccncc3)cc2n1` (stereo not shown) [Compound 24, 1-(7-morpholino-2-(pyridin-4-yl)pyrazolo[1,5-a]pyrimidin-5-yl)-3-phenylpiperidin-2-one] gave an IC50 of 1000 to 10000 nM.

In turn, `O=C1CC(c2ccccc2)CN1c1cc(N2CCOCC2)n2nc(-c3ccncc3)cc2n1` (stereo not shown) [Compound 25, 1-(7-morpholino-2-(pyridin-4-yl)pyrazolo[1,5-a]pyrimidin-5-yl)-4-phenylpyrrolidin-2-one] had an IC50 of 1000 to 10000 nM.

Take `O=C1CCC(c2ccccc2)CN1c1cc(N2CCOCC2)n2nc(-c3ccncc3)cc2n1` (stereo not shown) [Compound 26, 1-(7-morpholino-2-(pyridin-4-yl)pyrazolo[1,5-a]pyrimidin-5-yl)-5-phenylpiperidin-2-one]: the IC50 is 1000 to 10000 nM.

The compound `CN1CCN(c2cc(N3CCOCC3)n3nc(-c4ccncc4)cc3n2)C(=O)C1c1ccccc1` (stereo not shown) [Compound 27, 4-methyl-1-(7-morpholino-2-(pyridin-4-yl)pyrazolo[1,5-a]pyrimidin-5-yI)-3-phenylpiperazin-2-one] yielded an IC50 of 1000 to 10000 nM.

`CN1CCN(c2cc(N3CCOCC3)n3nc(-c4ccncc4)cc3n2)C(Cc2ccccc2)C1=O` (stereo not shown) [Compound 28, 3-benzyl-1-methyl-4-(7-morpholino-2-(pyridin-4-yl)pyrazolo[1,5-a]pyrimidin-5-yl)piperazin-2-one] yielded an IC50 of 1000 to 10000 nM.

The compound `Fc1cc(N2CCOCC2)n2nc(-c3ccncc3)cc2n1` [Compound 29, 4-(5-fluoro-2-(pyridin-4-yl)pyrazolo[1,5-a]pyrimidin-7-yl)morpholine] yielded an IC50 of 100 to 1000 nM.

As to `c1ccc(C2CN(c3cc(N4CCOCC4)n4nc(-c5ccncc5)cc4n3)C2)cc1` [Compound 32, 4-(5-(3-phenylazetidin-1-yl)-2-(pyridin-4-yl)pyrazolo[1,5-a]pyrimidin-7-yl)morpholine], the IC50 was 1000 to 10000 nM.

The compound `c1ccc(C2CCN(c3cc(N4CCOCC4)n4nc(-c5ccncc5)cc4n3)C2)cc1` (stereo not shown) [Compound 33, 4-(5-(3-phenylpyrrolidin-1-yl)-2-(pyridin-4-yl)pyrazolo[1,5-a]pyrimidin-7-yl)morpholine] gave an IC50 of 1000 to 10000 nM.

`c1ccc(C2CCCN(c3cc(N4CCOCC4)n4nc(-c5ccncc5)cc4n3)C2)cc1` (stereo not shown) [Compound 34, 4-(5-(3-phenylpiperidin-1-yl)-2-(pyridin-4-yl)pyrazolo[1,5-a]pyrimidin-7-yl)morpholine] returned an IC50 of 1000 to 10000 nM.

For `c1ccc(C2CN(c3cc(N4CCOCC4)n4nc(-c5ccncc5)cc4n3)CCN2)cc1` (stereo not shown) [Compound 35, 4-(5-(3-phenylpiperazin-1-yl)-2-(pyridin-4-yl)pyrazolo[1,5-a]pyrimidin-7-yl)morpholine], the IC50 was in the range of 1000 to 10000 nM.

As for `c1ccc(CC2COCCN2c2cc(N3CCOCC3)n3nc(-c4ccncc4)cc3n2)cc1` (stereo not shown) [Compound 36, 3-benzyl-4-(7-morpholino-2-(pyridin-4-yl)pyrazolo[1,5-a]pyrimidin-5-yl)morpholine], the IC50 is 1000 to 10000 nM.
